In ChEMBL document CHEMBL5291721, “A preclinical secondary pharmacology resource illuminates target-adverse drug reaction associations of marketed drugs” (Nat Commun, 2023):
Where “and” joins values, the source holds several entries; their conditions need not be identical. Identical values can stand only once.

Key:
Vasopressin V2 receptor = Vasopressin V2 receptor (Homo sapiens, UniProt P30518)
B2 bradykinin receptor = target: T1, B2 bradykinin receptor (Homo sapiens, UniProt P30411)
T1 sequence (P30411 whole entry): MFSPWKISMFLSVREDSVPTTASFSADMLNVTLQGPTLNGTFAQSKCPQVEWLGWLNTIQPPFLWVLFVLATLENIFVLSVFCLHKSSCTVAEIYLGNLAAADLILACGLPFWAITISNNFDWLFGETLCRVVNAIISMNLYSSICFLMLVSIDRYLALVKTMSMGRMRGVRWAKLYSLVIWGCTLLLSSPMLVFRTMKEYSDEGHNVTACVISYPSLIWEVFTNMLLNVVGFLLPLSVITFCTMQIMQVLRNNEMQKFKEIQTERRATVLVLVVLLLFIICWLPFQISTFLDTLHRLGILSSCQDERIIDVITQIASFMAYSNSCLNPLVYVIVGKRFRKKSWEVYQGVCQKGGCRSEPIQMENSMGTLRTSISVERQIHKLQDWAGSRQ

[1] = target: T2, Cholecystokinin receptor type A (Homo sapiens, UniProt P32238)
T2 sequence (P32238 whole entry): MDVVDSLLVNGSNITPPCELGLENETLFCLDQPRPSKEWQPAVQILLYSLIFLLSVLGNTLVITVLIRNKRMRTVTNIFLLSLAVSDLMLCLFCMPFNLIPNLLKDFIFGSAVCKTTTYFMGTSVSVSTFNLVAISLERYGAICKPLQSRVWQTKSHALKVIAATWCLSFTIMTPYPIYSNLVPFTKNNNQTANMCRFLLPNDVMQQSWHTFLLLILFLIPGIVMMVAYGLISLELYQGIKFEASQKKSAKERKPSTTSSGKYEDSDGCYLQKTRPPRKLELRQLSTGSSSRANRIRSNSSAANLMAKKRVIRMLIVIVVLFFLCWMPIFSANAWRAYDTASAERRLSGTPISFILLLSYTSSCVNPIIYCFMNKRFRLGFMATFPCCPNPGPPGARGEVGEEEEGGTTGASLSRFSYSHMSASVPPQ

[2] = target: Growth hormone secretagogue receptor type 1 (Homo sapiens, UniProt Q92847)
[3] = target: T3, 5-hydroxytryptamine receptor 1A (Homo sapiens, UniProt P08908); assay type: functional, cell-based
T3 sequence (P08908 whole entry): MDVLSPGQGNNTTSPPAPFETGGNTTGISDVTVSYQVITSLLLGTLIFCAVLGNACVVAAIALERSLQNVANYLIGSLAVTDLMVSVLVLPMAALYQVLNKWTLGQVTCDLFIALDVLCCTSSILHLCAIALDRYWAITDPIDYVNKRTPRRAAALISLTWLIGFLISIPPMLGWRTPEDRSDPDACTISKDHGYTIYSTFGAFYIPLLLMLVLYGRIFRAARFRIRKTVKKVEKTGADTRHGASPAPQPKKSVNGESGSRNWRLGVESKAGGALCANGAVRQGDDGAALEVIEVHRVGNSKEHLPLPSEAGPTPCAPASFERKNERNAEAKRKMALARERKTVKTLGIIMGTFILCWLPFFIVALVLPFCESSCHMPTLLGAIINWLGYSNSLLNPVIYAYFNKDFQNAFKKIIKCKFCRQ

Motilin receptor = Motilin receptor (Homo sapiens, UniProt O43193)
[4] = target: T4, Neuropeptide Y receptor type 1 (Homo sapiens, UniProt P25929); details: read-out: AC50
T4 sequence (P25929 whole entry): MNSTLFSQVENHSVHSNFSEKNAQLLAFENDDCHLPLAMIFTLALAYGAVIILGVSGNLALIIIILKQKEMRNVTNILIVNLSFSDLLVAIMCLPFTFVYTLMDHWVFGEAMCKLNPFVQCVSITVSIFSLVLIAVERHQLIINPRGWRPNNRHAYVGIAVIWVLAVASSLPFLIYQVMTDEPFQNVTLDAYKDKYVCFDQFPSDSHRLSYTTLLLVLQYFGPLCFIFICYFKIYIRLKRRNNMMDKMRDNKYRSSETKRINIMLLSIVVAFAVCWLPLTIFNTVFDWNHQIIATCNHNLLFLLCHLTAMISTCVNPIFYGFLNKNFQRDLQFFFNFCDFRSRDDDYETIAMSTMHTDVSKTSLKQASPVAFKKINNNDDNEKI

[5] = target: Delta-type opioid receptor (Homo sapiens, UniProt P41143)
[6] = target: 3',5'-cyclic-AMP phosphodiesterase 4D (Homo sapiens, UniProt Q08499); assay type: functional
[7] = target: T5, Amine oxidase [flavin-containing] A (Homo sapiens, UniProt P21397); assay type: functional
T5 sequence (P21397 whole entry): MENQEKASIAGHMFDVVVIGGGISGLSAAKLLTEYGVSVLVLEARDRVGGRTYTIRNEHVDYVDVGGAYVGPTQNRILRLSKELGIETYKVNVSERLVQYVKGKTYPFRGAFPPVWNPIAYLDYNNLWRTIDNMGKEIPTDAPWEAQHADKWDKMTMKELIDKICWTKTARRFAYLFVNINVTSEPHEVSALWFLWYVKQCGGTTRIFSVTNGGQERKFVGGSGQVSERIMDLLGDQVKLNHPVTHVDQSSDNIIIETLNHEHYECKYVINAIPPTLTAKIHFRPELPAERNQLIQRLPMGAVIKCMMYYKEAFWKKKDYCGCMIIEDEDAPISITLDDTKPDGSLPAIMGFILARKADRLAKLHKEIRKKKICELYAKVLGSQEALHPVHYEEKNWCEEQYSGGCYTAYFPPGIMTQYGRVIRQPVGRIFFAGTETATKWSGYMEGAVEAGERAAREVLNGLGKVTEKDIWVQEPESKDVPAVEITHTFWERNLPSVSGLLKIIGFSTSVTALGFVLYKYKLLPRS

[8] = target: cGMP-inhibited 3',5'-cyclic phosphodiesterase 3A (Homo sapiens, UniProt Q14432); assay type: functional
Also: assay procedure not described here.

Delta-type opioid receptor, sequence (P41143 whole entry): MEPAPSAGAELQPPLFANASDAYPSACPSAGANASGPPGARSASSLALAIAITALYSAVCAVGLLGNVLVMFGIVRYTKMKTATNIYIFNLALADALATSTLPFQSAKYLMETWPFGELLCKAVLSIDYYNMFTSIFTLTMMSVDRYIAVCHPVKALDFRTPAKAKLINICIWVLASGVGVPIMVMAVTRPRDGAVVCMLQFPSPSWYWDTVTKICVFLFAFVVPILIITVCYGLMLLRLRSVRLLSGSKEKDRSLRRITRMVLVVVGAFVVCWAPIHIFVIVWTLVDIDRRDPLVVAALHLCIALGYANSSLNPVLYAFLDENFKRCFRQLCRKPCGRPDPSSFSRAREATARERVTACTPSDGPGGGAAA
3',5'-cyclic-AMP phosphodiesterase 4D, sequence (Q08499 whole entry): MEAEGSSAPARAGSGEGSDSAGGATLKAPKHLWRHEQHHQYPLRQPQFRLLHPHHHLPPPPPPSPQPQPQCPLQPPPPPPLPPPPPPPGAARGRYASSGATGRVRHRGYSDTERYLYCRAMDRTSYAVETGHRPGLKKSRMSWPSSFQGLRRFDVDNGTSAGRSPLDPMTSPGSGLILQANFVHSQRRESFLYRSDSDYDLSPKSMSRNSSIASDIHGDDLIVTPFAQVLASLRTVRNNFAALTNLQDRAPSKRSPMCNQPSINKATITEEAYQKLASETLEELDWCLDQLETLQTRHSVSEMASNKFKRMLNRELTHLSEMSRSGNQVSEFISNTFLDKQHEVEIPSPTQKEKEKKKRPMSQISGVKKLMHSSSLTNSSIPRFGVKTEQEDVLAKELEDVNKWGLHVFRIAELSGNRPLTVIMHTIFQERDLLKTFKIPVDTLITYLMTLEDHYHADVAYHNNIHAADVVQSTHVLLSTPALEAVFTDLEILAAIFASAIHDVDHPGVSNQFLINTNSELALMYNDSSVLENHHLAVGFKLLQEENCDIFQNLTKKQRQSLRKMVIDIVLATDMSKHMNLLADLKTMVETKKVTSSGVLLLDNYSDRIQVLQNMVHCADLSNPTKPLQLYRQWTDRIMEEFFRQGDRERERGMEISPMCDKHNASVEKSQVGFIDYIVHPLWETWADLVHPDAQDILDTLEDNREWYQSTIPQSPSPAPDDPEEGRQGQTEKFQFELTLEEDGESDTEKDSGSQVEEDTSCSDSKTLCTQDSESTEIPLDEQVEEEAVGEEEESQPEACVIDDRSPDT
cGMP-inhibited 3',5'-cyclic phosphodiesterase 3A, sequence (Q14432 whole entry): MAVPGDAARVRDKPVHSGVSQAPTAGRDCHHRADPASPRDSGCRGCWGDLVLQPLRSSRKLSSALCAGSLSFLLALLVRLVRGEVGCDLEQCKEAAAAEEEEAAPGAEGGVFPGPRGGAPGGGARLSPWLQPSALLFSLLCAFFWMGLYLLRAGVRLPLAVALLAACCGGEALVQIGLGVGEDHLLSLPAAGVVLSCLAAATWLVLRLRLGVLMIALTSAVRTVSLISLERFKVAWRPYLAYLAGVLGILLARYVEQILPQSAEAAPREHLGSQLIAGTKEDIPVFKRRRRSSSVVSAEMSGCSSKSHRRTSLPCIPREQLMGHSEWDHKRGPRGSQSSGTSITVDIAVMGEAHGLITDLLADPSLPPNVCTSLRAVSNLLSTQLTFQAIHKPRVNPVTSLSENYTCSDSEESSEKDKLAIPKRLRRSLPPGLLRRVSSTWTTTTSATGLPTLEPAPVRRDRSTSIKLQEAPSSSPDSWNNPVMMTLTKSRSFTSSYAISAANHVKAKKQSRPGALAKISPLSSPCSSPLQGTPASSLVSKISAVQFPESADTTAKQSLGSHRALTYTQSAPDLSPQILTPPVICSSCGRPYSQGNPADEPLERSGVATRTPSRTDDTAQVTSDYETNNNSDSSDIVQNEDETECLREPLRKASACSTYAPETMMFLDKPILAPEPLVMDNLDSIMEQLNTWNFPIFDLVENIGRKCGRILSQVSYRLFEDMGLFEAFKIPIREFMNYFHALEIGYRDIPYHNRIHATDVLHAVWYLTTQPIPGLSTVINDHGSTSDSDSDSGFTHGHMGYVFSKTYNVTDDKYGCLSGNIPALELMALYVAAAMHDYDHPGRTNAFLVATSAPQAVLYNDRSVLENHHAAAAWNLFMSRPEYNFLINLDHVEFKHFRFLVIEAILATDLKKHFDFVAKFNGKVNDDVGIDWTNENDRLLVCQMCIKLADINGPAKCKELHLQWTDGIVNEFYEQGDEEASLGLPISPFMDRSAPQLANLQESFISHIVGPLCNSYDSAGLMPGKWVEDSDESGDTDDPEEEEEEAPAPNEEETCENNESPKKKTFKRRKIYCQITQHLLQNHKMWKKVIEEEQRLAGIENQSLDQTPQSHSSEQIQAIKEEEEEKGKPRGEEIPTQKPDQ
Motilin receptor, sequence (O43193 whole entry): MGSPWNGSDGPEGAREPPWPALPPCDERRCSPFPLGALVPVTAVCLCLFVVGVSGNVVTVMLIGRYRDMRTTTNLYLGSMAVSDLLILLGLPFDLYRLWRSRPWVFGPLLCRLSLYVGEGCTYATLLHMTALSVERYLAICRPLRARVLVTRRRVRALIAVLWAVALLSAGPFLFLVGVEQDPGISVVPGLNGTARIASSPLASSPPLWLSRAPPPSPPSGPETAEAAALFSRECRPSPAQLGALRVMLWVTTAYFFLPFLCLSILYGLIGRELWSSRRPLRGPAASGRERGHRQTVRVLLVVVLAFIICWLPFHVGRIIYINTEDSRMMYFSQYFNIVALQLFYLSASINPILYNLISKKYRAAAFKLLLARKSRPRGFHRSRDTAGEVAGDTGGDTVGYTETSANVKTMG
Vasopressin V2 receptor, sequence (P30518 whole entry): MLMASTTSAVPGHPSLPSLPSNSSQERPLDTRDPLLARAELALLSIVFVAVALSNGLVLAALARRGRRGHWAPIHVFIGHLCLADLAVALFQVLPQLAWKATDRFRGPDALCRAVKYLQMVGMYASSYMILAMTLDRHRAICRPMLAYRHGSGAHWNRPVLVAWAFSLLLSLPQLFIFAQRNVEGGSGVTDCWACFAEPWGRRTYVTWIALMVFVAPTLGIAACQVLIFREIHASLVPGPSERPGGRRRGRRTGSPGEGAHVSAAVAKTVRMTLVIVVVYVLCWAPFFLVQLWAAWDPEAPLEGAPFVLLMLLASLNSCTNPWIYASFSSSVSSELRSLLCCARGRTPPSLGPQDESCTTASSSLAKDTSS
Growth hormone secretagogue receptor type 1, sequence (Q92847 whole entry): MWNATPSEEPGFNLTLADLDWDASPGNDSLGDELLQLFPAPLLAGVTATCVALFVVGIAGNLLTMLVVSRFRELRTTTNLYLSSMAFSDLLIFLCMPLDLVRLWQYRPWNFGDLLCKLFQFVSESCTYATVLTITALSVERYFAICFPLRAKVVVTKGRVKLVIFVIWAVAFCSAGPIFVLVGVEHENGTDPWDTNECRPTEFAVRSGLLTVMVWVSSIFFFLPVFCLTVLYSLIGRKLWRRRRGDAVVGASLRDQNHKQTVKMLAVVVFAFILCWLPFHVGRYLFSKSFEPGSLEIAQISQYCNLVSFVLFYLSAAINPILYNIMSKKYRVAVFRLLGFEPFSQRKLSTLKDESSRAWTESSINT

Row | SMILES | AC50 (Vasopressin V2 receptor) [µM] | AC50 (B2 bradykinin receptor) [µM] | AC50 [1] [µM] | AC50 [2] [µM] | AC50 [3] [µM] | AC50 (Motilin receptor) [µM] | AC50 [4] [µM] | AC50 [5] [µM] | AC50 [6] | AC50 [7] [µM] | AC50 [8]
1 | CCC(=O)O[C@H]1CC[C@H]2[C@@H]3CCC4=CC(=O)CC[C@]4(C)[C@H]3CC[C@]12C [TESTOSTERONE PROPIONATE] | > 10 | > 10 | > 10 | > 10 | > 10 | > 10 | > 10 | > 30 | > 30 µM | > 10 | > 10 µM
2 | CNC1=Nc2ccc(Cl)cc2C(c2ccccc2)=[N+]([O-])C1 [CHLORDIAZEPOXIDE] | > 30 | > 30 | > 30 | > 30 | > 30 | > 10 | > 30 | > 30 | > 10 µM | > 10 | > 30 µM
3 | CCCN[C@H]1CCc2nc(N)sc2C1 [PRAMIPEXOLE] | > 30 | > 30 | > 30 | > 30 | 16 | > 10 | > 30 | > 30 | > 30 µM | > 10 | > 30 µM
4 | CN1CCC(=C2c3ccccc3CCc3cccnc32)CC1 [AZATADINE] | > 30 | > 30 | > 30 | > 30 | > 30 | > 10 | > 30 | > 30 | > 30 µM | > 10 | > 30 µM
5 | CCOC(=O)C1=C(C)NC(C)=C(C(=O)OC)C1c1cccc([N+](=O)[O-])c1 (configuration not stated) [NITRENDIPINE] | > 30 | > 30 | > 30 | > 30 | > 10 | > 10 | > 30 | > 30 | > 30 µM | > 10 | > 30 µM
6 | C#C[C@]1(OC(C)=O)CC[C@H]2[C@@H]3CCC4=C/C(=N/O)CC[C@@H]4[C@H]3CC[C@@]21CC [NORGESTIMATE] | > 30 | > 30 | > 30 | > 30 | > 30 | > 30 | > 30 | > 30 | 13 µM | > 30 | > 30 µM
7 | CC12CC3CC(C)(C1)CC(N)(C3)C2 [MEMANTINE] | > 30 | > 30 | > 30 | > 30 | > 10 | > 10 | > 30 | > 30 | > 30 µM | > 10 | > 30 µM
8 | Cc1noc(NS(=O)(=O)c2ccc(N)cc2)c1C [SULFISOXAZOLE] | > 10 | > 10 | > 10 | > 10 | > 10 | > 10 | > 10 | > 30 | > 30 µM | > 10 | > 30 µM
9 | CCC(C)C(CC)C(N)=O (configuration not stated) [VALNOCTAMIDE] | > 30 | > 30 | > 30 | > 30 | > 30 | > 30 | > 30 | > 30 | > 30 µM | > 30 | > 30 µM
10 | Clc1ccc(C(Cn2ccnc2)OCc2ccsc2Cl)c(Cl)c1 (configuration not stated) [TIOCONAZOLE] | > 30 | > 3 | > 30 | 8.5 | > 30 | > 30 | > 30 | 3.2 | 8.7 µM | > 30 | 17 µM
11 | CC(C)(C)C(=O)OCC(=O)[C@H]1CC[C@H]2[C@@H]3CCC4=CC(=O)CC[C@]4(C)[C@H]3CC[C@]12C [DESOXYCORTICOSTERONE PIVALATE] | > 10 | > 10 | > 10 | > 10 | > 10 | > 10 | > 10 | > 30 | > 30 µM | > 10 | > 30 µM
12 | C[C@]12CCC(=O)C(O)=C1CC[C@@H]1[C@@H]2CC[C@]2(C)C(=O)CC[C@@H]12 [FORMESTANE] | > 30 | > 30 | > 30 | > 30 | > 30 | > 30 | > 30 | > 30 | > 30 µM | > 30 | > 30 µM
13 | CC(C)COCC(CN(Cc1ccccc1)c1ccccc1)N1CCCC1 (configuration not stated) [BEPRIDIL] | > 30 | > 30 | 23.2 | 22.1 | > 30 | 20.2 | > 30 | > 30 | > 30 µM | > 30 | > 30 µM
14 | Cc1cnc(C(=O)NCCc2ccc(S(=O)(=O)NC(=O)NC3CCCCC3)cc2)cn1 [GLIPIZIDE] | > 30 | > 30 | > 30 | > 30 | > 10 | > 10 | > 30 | > 10 | > 30 µM | > 10 | > 30 µM
15 | CCCC(CCC)C(N)=O [VALPROMIDE] | > 30 | > 30 | > 30 | > 30 | > 30 | > 10 | > 30 | > 30 | > 30 µM | > 10 | > 30 µM
16 | CCOC(=O)C1=C[C@]2(CC)CCCN3CCc4c(n1c1ccccc41)[C@@H]32 [VINPOCETINE] | > 30 | > 30 | > 30 | > 30 | > 30 | > 30 | > 30 | > 30 | 8.8 µM | > 30 | > 30 µM
17 | C[C@H](Cc1ccc(O)c(O)c1)[C@@H](C)Cc1ccc(O)c(O)c1 [MASOPROCOL] | > 10 | > 10 | > 10 | > 10 | > 10 | > 10 | > 10 | > 30 | 4.2 µM and 2.8 µM and 3.1 µM | > 30 | 12 µM and 23 µM and 19 µM
